Reference: patent US11000033B2, “Ketone or oxime compound, and herbicide” (NISSAN CHEMICAL CORPORATION, priority 2014, dated 2021)

Key:
Assay type in all cases: in vivo
[1] = test system: Scirpus juncoides; assay: Test Example 2: herbicidal activity, application during weed generation in submerged conditions (symbol B); conditions: Table 23; application herbicide amount 320 g/ha; grade 0-5 by criteria of Test Example 1
Procedure, shortened: (§1)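 Compound was applied as a water-diluted emulsion into the standing water of flooded pots (4 cm) once co-sown weeds reached one to two leaves. Greenhouse temperature was 25° C. to 30° C., soil was alluvial, and each species was rated visually after 3 weeks.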

[2] = test system: beet; assay: Test Example 5: effect on crop by foliage application, plastic box (symbol f); conditions: 320 g/ha, 3 weeks after application
Procedure, shortened: (§2)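 Foliage-application test plants come from spot sowing in sterilized diluvial soil under a soil layer of about 1.5 cm, grown at 25° C. to 30° C. in a greenhouse.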

[3] = test system: rice plant; assay: Test Example 5: effect on crop by foliage application, plastic box (symbol b); conditions: 320 g/ha, 3 weeks after application
Procedure, shortened: as §2

[4] = test system: Monochoria vaginalis; assay: Test Example 1: herbicidal activity, application before weed generation in submerged conditions (symbol C); conditions: application herbicide amount 320 g/ha
Procedure, shortened: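 Scores run 0 to 5 by herbicidal ratio, with 5 meaning 90% or more and 0 meaning 5% or lower, read 3 weeks after treatment. Compound was applied as a diluted emulsion to the water surface of submerged alluvial-soil pots on the day weed seeds were sown.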

[5] = test system: corn; assay: Test Example 5: effect on crop by foliage application, plastic box (symbol c); conditions: 320 g/ha, 3 weeks after application
Procedure, shortened: as §2

[6] = test system: Echinochloa crus-galli var. crus-galli; assay: Test Example 3: herbicidal effect by foliage application, Wagner pot (symbol H); conditions: application herbicide amount 320 g/ha
Procedure, shortened: (§3)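 In a shallow-flooded alluvial soil system held at 25–30 °C, plants including rice grew for 14 days and were then sprayed over the foliage with emulsion diluted to a fixed herbicide amount. Visual rating followed at 3 weeks.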

[7] = test system: soybean; assay: Test Example 4: effect on crop by soil treatment (symbol d); conditions: application herbicide amount 320 g/ha
Procedure, shortened: (§4)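 Grown at 25° C. to 30° C. in a greenhouse, the crops came from seed sown spot-wise in sterilized diluvial soil under roughly 1.5 cm of covering soil.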

[8] = test system: Leptochloa chinensis; assay: Test Example 3: herbicidal effect by foliage application, Wagner pot (symbol D); conditions: application herbicide amount 320 g/ha
Procedure, shortened: as §3

[9] = test system: soybean; assay: Test Example 5: effect on crop by foliage application, plastic box (symbol d); conditions: 320 g/ha, 3 weeks after application
Procedure, shortened: as §2

[10] = test system: Cyperus difformis; assay: Test Example 3: herbicidal effect by foliage application, Wagner pot (symbol E); conditions: application herbicide amount 320 g/ha
Procedure, shortened: as §3

[11] = test system: Stellaria media; assay: Test Example 4: herbicidal effect by soil treatment (symbol P); conditions: application herbicide amount 320 g/ha
Procedure, shortened: (§5)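 Seeds were sown in sterilized diluvial soil, covered with about 1.5 cm of soil, and the soil surface was sprayed with a water-diluted emulsion of the compound at a predetermined rate. Plants grew in a greenhouse at 25° C. to 30° C.; effects were scored visually 3 weeks after application.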

[12] = test system: wheat; assay: Test Example 4: effect on crop by soil treatment (symbol e); conditions: application herbicide amount 320 g/ha
Procedure, shortened: as §4

[13] = test system: corn; assay: Test Example 4: effect on crop by soil treatment (symbol c); conditions: application herbicide amount 320 g/ha
Procedure, shortened: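 Steps: fill box with sterilized diluvial soil; sow seed spot-like; cover with ~1.5 cm soil; grow in greenhouse (25° C. to 30° C.).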

[14] = test system: transplanted rice plant; assay: Test Example 1: effect on crop, application before weed generation in submerged conditions (symbol a); conditions: application herbicide amount 320 g/ha
Procedure, shortened: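 Alluvial soil pots flooded to 4 cm water, sown with Echinochloa oryzacola, Scirpus juncoides and Monochoria vaginalis, then transplanted with 2.5 leaf stage rice seedlings; pre-emergence application. Greenhouse 25° C. to 30° C.; scored 0–5 by herbicidal ratio 3 weeks after application.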

[15] = test system: Abutilon theophrasti; assay: Test Example 4: herbicidal effect by soil treatment (symbol M); conditions: application herbicide amount 320 g/ha
Procedure, shortened: as §5

[16] = test system: Echinochloa oryzacola Vasing.; assay: Test Example 2: herbicidal activity, application during weed generation in submerged conditions (symbol A); conditions: Table 23; application herbicide amount 320 g/ha; grade 0-5 by criteria of Test Example 1
Procedure, shortened: as §1

CON=C(C)CC1CC(OC(=O)SC(C)(C)C)=C(c2c(C)cc(-c3ccc(Cl)cc3)cc2C)C1=O (centres unmarked) [6-082]
Herbicidal effect grade, B: Scirpus juncoides [1]: 3 (Herbicidal ratio of 40% or higher and lower than 70%)
f: beet, effect on crop (criteria of Test Example 1) [2]: 0 (Herbicidal ratio of 5% or lower (almost no effect))
b: directly sowed rice plant, effect on crop (criteria of Test Example 1) [3]: 5 (Herbicidal ratio of 90% or more (almost completely withered))
Herbicidal effect grade, C: Monochoria vaginalis [4]: 4 (Herbicidal ratio of 70% or higher and lower than 90%)
c: corn, effect on crop (criteria of Test Example 1) [5]: 5 (Herbicidal ratio of 90% or more (almost completely withered))
herbicidal effect on H (Echinochloa crus-galli var. crus-galli), grade 0-5 [6]: 5 (Herbicidal ratio of 90% or more (almost completely withered))
d: soybean, effect on crop grade [7]: 0 (Herbicidal ratio of 5% or lower (almost no effect))
herbicidal effect on D (Leptochloa chinensis), grade 0-5 [8]: 5 (Herbicidal ratio of 90% or more (almost completely withered))
d: soybean, effect on crop (criteria of Test Example 1) [9]: 0 (Herbicidal ratio of 5% or lower (almost no effect))
herbicidal effect on E, grade 0-5 [10]: 5 (Herbicidal ratio of 90% or more (almost completely withered))
P: Stellaria media, herbicidal effect grade [11]: 0 (Herbicidal ratio of 5% or lower (almost no effect))
e: wheat, effect on crop grade [12]: 0 (Herbicidal ratio of 5% or lower (almost no effect))
c: corn, effect on crop grade [13]: 0 (Herbicidal ratio of 5% or lower (almost no effect))
Effect grade on crop, a: transplanted rice plant [14]: 5 (Herbicidal ratio of 90% or more (almost completely withered))
M: Abutilon theophrasti, herbicidal effect grade [15]: 2 (Herbicidal ratio of 20% or higher and lower than 40%)
Herbicidal effect grade, A: Echinochloa oryzacola Vasing. [16]: 4 (Herbicidal ratio of 70% or higher and lower than 90%)

CC(=O)CC1CC(O)=C(c2c(C)cc(-c3ccc(C(F)(F)F)cc3)cc2C)C1=O (centres unmarked) [7-005]
Herbicidal effect grade, B: Scirpus juncoides [1]: 0 (Herbicidal ratio of 5% or lower (almost no effect))
f: beet, effect on crop (criteria of Test Example 1) [2]: 0 (Herbicidal ratio of 5% or lower (almost no effect))
b: directly sowed rice plant, effect on crop (criteria of Test Example 1) [3]: 4 (Herbicidal ratio of 70% or higher and lower than 90%)
Herbicidal effect grade, C: Monochoria vaginalis [4]: 0 (Herbicidal ratio of 5% or lower (almost no effect))
c: corn, effect on crop (criteria of Test Example 1) [5]: 4 (Herbicidal ratio of 70% or higher and lower than 90%)
herbicidal effect on H (Echinochloa crus-galli var. crus-galli), grade 0-5 [6]: 5 (Herbicidal ratio of 90% or more (almost completely withered))
Effect on crop grade, d: soybean [7]: 0 (Herbicidal ratio of 5% or lower (almost no effect))
herbicidal effect on D (Leptochloa chinensis), grade 0-5 [8]: 5 (Herbicidal ratio of 90% or more (almost completely withered))
d: soybean, effect on crop (criteria of Test Example 1) [9]: 0 (Herbicidal ratio of 5% or lower (almost no effect))
herbicidal effect on E, grade 0-5 [10]: 0 (Herbicidal ratio of 5% or lower (almost no effect))
Herbicidal effect grade, P: Stellaria media [11]: 0 (Herbicidal ratio of 5% or lower (almost no effect))
Effect on crop grade, e: wheat [12]: 0 (Herbicidal ratio of 5% or lower (almost no effect))
Effect on crop grade, c: corn [13]: 0 (Herbicidal ratio of 5% or lower (almost no effect))
Effect grade on crop, a: transplanted rice plant [14]: 1 (Herbicidal ratio of 5% or higher and lower than 20%)
Herbicidal effect grade, M: Abutilon theophrasti [15]: 0 (Herbicidal ratio of 5% or lower (almost no effect))
Herbicidal effect grade, A: Echinochloa oryzacola Vasing. [16]: 1 (Herbicidal ratio of 5% or higher and lower than 20%)

CON=C(C)CC1CC(OC(=O)COc2ccccc2)=C(c2c(C)cc(-c3ccc(Cl)cc3)cc2C)C1=O (mixture of isomers) [6-061]
Herbicidal effect grade, B: Scirpus juncoides [1]: 4 (Herbicidal ratio of 70% or higher and lower than 90%)
f: beet, effect on crop (criteria of Test Example 1) [2]: 3 (Herbicidal ratio of 40% or higher and lower than 70%)
b: directly sowed rice plant, effect on crop (criteria of Test Example 1) [3]: 5 (Herbicidal ratio of 90% or more (almost completely withered))
Herbicidal effect grade, C: Monochoria vaginalis [4]: 1 (Herbicidal ratio of 5% or higher and lower than 20%)
c: corn, effect on crop (criteria of Test Example 1) [5]: 5 (Herbicidal ratio of 90% or more (almost completely withered))
herbicidal effect on H (Echinochloa crus-galli var. crus-galli), grade 0-5 [6]: 5 (Herbicidal ratio of 90% or more (almost completely withered))
d: soybean, effect on crop grade [7]: 0 (Herbicidal ratio of 5% or lower (almost no effect))
herbicidal effect on D (Leptochloa chinensis), grade 0-5 [8]: 5 (Herbicidal ratio of 90% or more (almost completely withered))
d: soybean, effect on crop (criteria of Test Example 1) [9]: 3 (Herbicidal ratio of 40% or higher and lower than 70%)
herbicidal effect on E, grade 0-5 [10]: 5 (Herbicidal ratio of 90% or more (almost completely withered))
P: Stellaria media, herbicidal effect grade [11]: 3 (Herbicidal ratio of 40% or higher and lower than 70%)
e: wheat, effect on crop grade [12]: 2 (Herbicidal ratio of 20% or higher and lower than 40%)
c: corn, effect on crop grade [13]: 0 (Herbicidal ratio of 5% or lower (almost no effect))
Effect grade on crop, a: transplanted rice plant [14]: 5 (Herbicidal ratio of 90% or more (almost completely withered))
M: Abutilon theophrasti, herbicidal effect grade [15]: 1 (Herbicidal ratio of 5% or higher and lower than 20%)
Herbicidal effect grade, A: Echinochloa oryzacola Vasing. [16]: 5 (Herbicidal ratio of 90% or more (almost completely withered))

CON=C(C)CC1CC(O)=C(c2c(C)cc(C)cc2SC)C1=O (centres unmarked) [6-075]
Herbicidal effect grade, B: Scirpus juncoides [1]: 0 (Herbicidal ratio of 5% or lower (almost no effect))
f: beet, effect on crop (criteria of Test Example 1) [2]: 0 (Herbicidal ratio of 5% or lower (almost no effect))
b: directly sowed rice plant, effect on crop (criteria of Test Example 1) [3]: 4 (Herbicidal ratio of 70% or higher and lower than 90%)
Herbicidal effect grade, C: Monochoria vaginalis [4]: 2 (Herbicidal ratio of 20% or higher and lower than 40%)
c: corn, effect on crop (criteria of Test Example 1) [5]: 4 (Herbicidal ratio of 70% or higher and lower than 90%)
herbicidal effect on H (Echinochloa crus-galli var. crus-galli), grade 0-5 [6]: 3 (Herbicidal ratio of 40% or higher and lower than 70%)
d: soybean, effect on crop grade [7]: 0 (Herbicidal ratio of 5% or lower (almost no effect))
herbicidal effect on D (Leptochloa chinensis), grade 0-5 [8]: 3 (Herbicidal ratio of 40% or higher and lower than 70%)
d: soybean, effect on crop (criteria of Test Example 1) [9]: 0 (Herbicidal ratio of 5% or lower (almost no effect))
herbicidal effect on E, grade 0-5 [10]: 3 (Herbicidal ratio of 40% or higher and lower than 70%)
P: Stellaria media, herbicidal effect grade [11]: 0 (Herbicidal ratio of 5% or lower (almost no effect))
e: wheat, effect on crop grade [12]: 0 (Herbicidal ratio of 5% or lower (almost no effect))
c: corn, effect on crop grade [13]: 0 (Herbicidal ratio of 5% or lower (almost no effect))
Effect grade on crop, a: transplanted rice plant [14]: 3 (Herbicidal ratio of 40% or higher and lower than 70%)
M: Abutilon theophrasti, herbicidal effect grade [15]: 0 (Herbicidal ratio of 5% or lower (almost no effect))
Herbicidal effect grade, A: Echinochloa oryzacola Vasing. [16]: 1 (Herbicidal ratio of 5% or higher and lower than 20%)

CON=C(C)CC1CC(O)=C(c2c(C)cc(OC)cc2C)C1=O (centres unmarked) [6-055]
Herbicidal effect grade, B: Scirpus juncoides [1]: 2 (Herbicidal ratio of 20% or higher and lower than 40%)
f: beet, effect on crop (criteria of Test Example 1) [2]: 0 (Herbicidal ratio of 5% or lower (almost no effect))
b: directly sowed rice plant, effect on crop (criteria of Test Example 1) [3]: 5 (Herbicidal ratio of 90% or more (almost completely withered))
Herbicidal effect grade, C: Monochoria vaginalis [4]: 0 (Herbicidal ratio of 5% or lower (almost no effect))
c: corn, effect on crop (criteria of Test Example 1) [5]: 5 (Herbicidal ratio of 90% or more (almost completely withered))
herbicidal effect on H (Echinochloa crus-galli var. crus-galli), grade 0-5 [6]: 5 (Herbicidal ratio of 90% or more (almost completely withered))
d: soybean, effect on crop grade [7]: 0 (Herbicidal ratio of 5% or lower (almost no effect))
herbicidal effect on D (Leptochloa chinensis), grade 0-5 [8]: 5 (Herbicidal ratio of 90% or more (almost completely withered))
d: soybean, effect on crop (criteria of Test Example 1) [9]: 3 (Herbicidal ratio of 40% or higher and lower than 70%)
herbicidal effect on E, grade 0-5 [10]: 5 (Herbicidal ratio of 90% or more (almost completely withered))
P: Stellaria media, herbicidal effect grade [11]: 0 (Herbicidal ratio of 5% or lower (almost no effect))
e: wheat, effect on crop grade [12]: 0 (Herbicidal ratio of 5% or lower (almost no effect))
c: corn, effect on crop grade [13]: 5 (Herbicidal ratio of 90% or more (almost completely withered))
Effect grade on crop, a: transplanted rice plant [14]: 5 (Herbicidal ratio of 90% or more (almost completely withered))
M: Abutilon theophrasti, herbicidal effect grade [15]: 3 (Herbicidal ratio of 40% or higher and lower than 70%)
Herbicidal effect grade, A: Echinochloa oryzacola Vasing. [16]: 5 (Herbicidal ratio of 90% or more (almost completely withered))
